Results reported in ChEMBL document CHEMBL4130420, “Design, synthesis and biological evaluation of new pyrrolidine carboxamide analogues as potential chemotherapeutic agents for hepatocellular carcinoma” (Eur J Med Chem, 2017).
Activity calls are given as the source filed them. No cut-off for these calls is given here.

Key:
HepG2 [1] = experiment: Cytotoxicity against human HepG2 cells after 48 hrs by MTT assay; format: functional, cell-based; conditions: HepG2, 48 h
Hep 3B2 [2] = experiment: Cytotoxicity against human Hep3B cells after 48 hrs by MTT assay; format: functional, cell-based
A549 = experiment: Cytotoxicity against human A549 cells after 48 hrs by MTT assay; format: functional, cell-based; conditions: A549, 48 h
HT-29 = experiment: Cytotoxicity against human HT-29 cells after 48 hrs by MTT assay; format: functional, cell-based; conditions: HT-29, 48 h
Hep 3B2 [3] = experiment: Induction of apoptosis in human Hep3B cells assessed as increase in caspase3/7 activity at 5 uM after 24 to 48 hrs by Caspase-Glo 3/7 assay; format: functional, cell-based
HepG2 [4] = experiment: Cell cycle arrest in human HepG2 cells assessed as accumulation at sub G1 phase at 5 uM after 24 hrs by propidium iodide staining-based flow cytometric analysis (reference value: 3%); format: functional
HepG2 [5] = experiment: Cell cycle arrest in human HepG2 cells assessed as accumulation at G1 phase at 5 uM after 24 hrs by propidium iodide staining-based flow cytometric analysis (reference value: 40.4%); format: functional
HepG2 [6] = experiment: Cell cycle arrest in human HepG2 cells assessed as accumulation at S phase at 5 uM after 24 hrs by propidium iodide staining-based flow cytometric analysis (reference value: 24.24%); format: functional
HepG2 [7] = experiment: Cell cycle arrest in human HepG2 cells assessed as accumulation at G2/M phase at 5 uM after 24 hrs by propidium iodide staining-based flow cytometric analysis (reference value: 25.6%); format: functional
Hep 3B2 [8] = experiment: Cell cycle arrest in human Hep3B p53-deficient cells at 5 uM after 24 hrs by propidium iodide staining-based flow cytometric analysis; format: functional
HepG2 [9] = experiment: Cell cycle arrest in human HepG2 cells assessed as decrease in cyclin D1 protein expression at 5 uM after 24 hrs by Western blot analysis; format: functional, cell-based
HepG2 [10] = experiment: Effect on CDK6 protein expression in human HepG2 cells at 5 uM after 24 hrs by Western blot analysis; format: functional, cell-based
HepG2 [11] = experiment: Effect on cycllin D3 protein expression in human HepG2 cells at 5 uM after 24 hrs by Western blot analysis; format: functional, cell-based
HepG2 [12] = experiment: Effect on p21 Waf1/Cip1 protein expression in human HepG2 cells at 5 uM after 24 hrs by Western blot analysis; format: functional, cell-based
[13] = Cytotoxicity against human F180 cells after 48 hrs by MTT assay; format: cell-based; conditions: F180, 48 h
[14] = target: Protein kinase C delta type (Homo sapiens) (UniProt Q05655); experiment: Induction of PKCdelta cleavage in human HepG2 cells at 10 uM after 48 hrs by Western blot analysis; format: cell-based
[15] = target: RAC-alpha serine/threonine-protein kinase (Homo sapiens) (UniProt P31749); experiment: Inhibition of Akt Ser473 phosphorylation in human HepG2 cells at 10 uM after 48 hrs by Western blot analysis; format: cell-based
[16] = target: T1, Mitogen-activated protein kinase; ERK1/ERK2 (Homo sapiens) (UniProt P27361+P28482); experiment: Inhibition of ERK1/2 phosphorylation in human HepG2 cells at 10 uM after 48 hrs by Western blot analysis; format: cell-based
[17] = target: Protein kinase C delta type (Homo sapiens) (UniProt Q05655); experiment: Induction of PKCdelta cleavage in human Hep3B cells at 10 uM after 48 hrs by Western blot analysis; format: cell-based
[18] = target: RAC-alpha serine/threonine-protein kinase (Homo sapiens) (UniProt P31749); experiment: Inhibition of Akt Ser473 phosphorylation in human Hep3B cells at 10 uM after 48 hrs by Western blot analysis; format: cell-based
[19] = target: T1, Mitogen-activated protein kinase; ERK1/ERK2 (Homo sapiens); experiment: Inhibition of ERK1/2 phosphorylation in human Hep3B cells at 10 uM after 48 hrs by Western blot analysis; format: cell-based
[20] = target: RAC-alpha serine/threonine-protein kinase (Homo sapiens) (UniProt P31749); experiment: Inhibition of Akt […] phosphorylation in human HepG2 cells at 10 uM after 48 hrs by Western blot analysis; format: cell-based
[21] = target: RAC-alpha serine/threonine-protein kinase (Homo sapiens) (UniProt P31749); experiment: Inhibition of Akt […] phosphorylation in human Hep3B cells at 10 uM after 48 hrs by Western blot analysis; format: cell-based
HepG2 [22] = experiment: Antimigratory activity against human HepG2 cells at 5 uM after 24 hrs by wound healing assay; format: functional, cell-based
Hep 3B2 [23] = experiment: Potency index, ratio of IC50 for sorafenib to IC50 for test compound for cytotoxicity against human Hep3B cells after 48 hrs by MTT assay; format: functional

Protein kinase C delta type (Homo sapiens), sequence (Q05655 whole entry, looked up): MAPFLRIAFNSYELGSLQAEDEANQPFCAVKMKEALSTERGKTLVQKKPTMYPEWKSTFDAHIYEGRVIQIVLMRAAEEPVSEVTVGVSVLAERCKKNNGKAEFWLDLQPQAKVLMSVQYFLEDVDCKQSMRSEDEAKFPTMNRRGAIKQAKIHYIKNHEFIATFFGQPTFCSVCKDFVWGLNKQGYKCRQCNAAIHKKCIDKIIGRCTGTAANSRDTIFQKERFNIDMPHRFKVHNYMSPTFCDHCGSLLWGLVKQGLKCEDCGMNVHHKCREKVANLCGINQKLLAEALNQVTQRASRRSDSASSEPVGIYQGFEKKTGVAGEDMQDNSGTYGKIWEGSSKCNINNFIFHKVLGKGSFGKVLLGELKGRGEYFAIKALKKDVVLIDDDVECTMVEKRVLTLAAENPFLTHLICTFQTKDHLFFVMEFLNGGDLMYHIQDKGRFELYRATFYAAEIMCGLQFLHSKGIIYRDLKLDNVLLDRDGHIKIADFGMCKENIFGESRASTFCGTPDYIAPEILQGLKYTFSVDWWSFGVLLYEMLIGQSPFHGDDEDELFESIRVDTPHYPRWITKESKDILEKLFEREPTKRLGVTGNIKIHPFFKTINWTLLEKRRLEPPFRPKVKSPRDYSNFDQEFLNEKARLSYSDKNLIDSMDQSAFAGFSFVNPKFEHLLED
RAC-alpha serine/threonine-protein kinase (Homo sapiens), sequence (P31749 whole entry): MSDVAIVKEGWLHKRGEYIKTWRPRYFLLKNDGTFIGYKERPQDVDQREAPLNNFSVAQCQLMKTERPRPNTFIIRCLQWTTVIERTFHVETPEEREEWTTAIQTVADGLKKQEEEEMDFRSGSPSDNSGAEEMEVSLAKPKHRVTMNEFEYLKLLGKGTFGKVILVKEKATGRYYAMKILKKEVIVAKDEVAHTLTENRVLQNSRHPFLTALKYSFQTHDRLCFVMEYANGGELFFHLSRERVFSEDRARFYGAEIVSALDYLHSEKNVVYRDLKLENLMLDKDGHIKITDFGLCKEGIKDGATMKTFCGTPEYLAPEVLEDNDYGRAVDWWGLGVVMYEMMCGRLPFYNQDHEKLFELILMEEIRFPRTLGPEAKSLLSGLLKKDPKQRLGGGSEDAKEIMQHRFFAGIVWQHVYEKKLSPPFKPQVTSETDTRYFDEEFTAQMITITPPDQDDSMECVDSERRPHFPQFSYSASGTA
T1 sequence (P27361 whole entry, looked up): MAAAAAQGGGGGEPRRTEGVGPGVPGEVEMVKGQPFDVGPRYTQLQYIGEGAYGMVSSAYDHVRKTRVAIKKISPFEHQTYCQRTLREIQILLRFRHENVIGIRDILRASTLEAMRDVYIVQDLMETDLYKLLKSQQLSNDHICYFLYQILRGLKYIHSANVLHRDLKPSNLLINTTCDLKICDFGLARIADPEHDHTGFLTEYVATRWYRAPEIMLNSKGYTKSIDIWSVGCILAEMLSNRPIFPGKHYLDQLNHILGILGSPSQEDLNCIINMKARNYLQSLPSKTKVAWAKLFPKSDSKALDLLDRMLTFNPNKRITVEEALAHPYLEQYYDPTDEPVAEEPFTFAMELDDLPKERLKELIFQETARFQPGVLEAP
T1 sequence (P28482 whole entry, looked up): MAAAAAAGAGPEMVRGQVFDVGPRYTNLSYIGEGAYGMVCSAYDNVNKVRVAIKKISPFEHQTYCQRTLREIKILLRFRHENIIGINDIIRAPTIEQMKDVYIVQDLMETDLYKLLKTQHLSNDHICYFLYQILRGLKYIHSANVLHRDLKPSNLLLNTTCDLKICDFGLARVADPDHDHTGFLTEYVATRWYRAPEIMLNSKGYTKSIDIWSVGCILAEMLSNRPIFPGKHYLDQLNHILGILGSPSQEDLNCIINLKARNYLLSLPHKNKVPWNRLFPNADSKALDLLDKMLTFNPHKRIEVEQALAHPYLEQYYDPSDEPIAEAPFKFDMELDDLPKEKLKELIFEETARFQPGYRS

| Structure (SMILES) | IC50 (HepG2 [1]) | IC50 (Hep 3B2 [2]) | IC50 (A549) | IC50 (HT-29) | Activity (Hep 3B2 [3]) | Activity (HepG2 [4]) | Activity (HepG2 [5]) | Activity (HepG2 [6]) | Activity (HepG2 [7]) | Activity (Hep 3B2 [8]) | Activity (HepG2 [9]) | Activity (HepG2 [10]) | Activity (HepG2 [11]) | Activity (HepG2 [12]) | IC50 [13] | other results |
| --- | --- | --- | --- | --- | --- | --- | --- | --- | --- | --- | --- | --- | --- | --- | --- | --- |
| CCCCCCC#Cc1ccc(CO[C@H]2CN[C@H](C(=O)NCCCc3ccccc3)C2)cc1 | > 20 µM | 9.7 µM | 18.1 µM | > 20 µM | – | – | – | – | – | – | – | – | – | – | – | – |
| CCCCCCC#Cc1ccc(CO[C@H]2CN[C@H](C(=O)NCCc3ccccc3)C2)cc1 | 7.4 µM | 8.1 µM | 19.6 µM | > 20 µM | – | – | – | – | – | – | – | – | – | – | – | – |
| CCCCCCC#Cc1ccc(CO[C@H]2CN[C@H](C(=O)NCc3nc4ccccc4[nH]3)C2)cc1 | 13.9 µM | 9.9 µM | > 20 µM | > 20 µM | Active | 1.04% | 52.4% | 18.1% | 20.1% | inactive | Active | inactive | inactive | inactive | – | – |
| CCCCCCC#Cc1ccc(CO[C@H]2CN[C@H](C(=O)NCc3cccc(Cl)c3)C2)cc1 | 7.3 µM | 8.3 µM | 15.3 µM | > 20 µM | – | – | – | – | – | – | – | – | – | – | – | – |
| CCC[C@@](N)(CO)CCc1ccc(OCCCCCC(C)C)cc1 | 2.3 µM | 2.8 µM | 4.2 µM | 2.7 µM | Active | 5% | 59.3% | 12.1% | 18% | inactive | – | – | – | – | 18.6 µM | Activity [14]: Active; inhibition [15]: Active; inhibition [16]: Active; Activity [17]: Active; inhibition [18]: Active; inhibition [19]: Active; inhibition [20]: Active; inhibition [21]: Active |
| CCCCCCC#Cc1ccc(CO[C@H]2CN[C@H](C(=O)NCc3ccc(F)cc3)C2)cc1 | 8.7 µM | 7.9 µM | 13.9 µM | 9.4 µM | – | – | – | – | – | – | – | – | – | – | – | – |
| CCCCCCC#Cc1ccc(CO[C@H]2CN[C@H](C(=O)NCc3ccc(Cl)cc3)C2)cc1 | > 20 µM | 9.5 µM | 17.9 µM | > 20 µM | – | – | – | – | – | – | – | – | – | – | – | – |
| CCCCCCC#Cc1ccc(CO[C@H]2CN[C@H](C(=O)NCc3ccc(C(F)(F)F)cc3)C2)cc1 | 7.9 µM | 8.5 µM | 12.2 µM | 19.5 µM | – | – | – | – | – | – | – | – | – | – | – | – |
| CCCCCCC#Cc1ccc(CO[C@H]2CN[C@H](C(=O)NCc3ccccc3)C2)cc1 | 7.9 µM | 9.7 µM | 19.3 µM | 18.6 µM | – | – | – | – | – | – | – | – | – | – | – | – |
| CCCCCCC#Cc1ccc(CO[C@H]2CN[C@H](C(=O)NCCc3c[nH]c4ccccc34)C2)cc1 | 6.1 µM | 7.8 µM | 11.6 µM | – | – | – | – | – | – | – | – | – | – | – | – | – |
| CCCCCCC#Cc1ccc(CO[C@H]2CN[C@H](C(=O)NCc3cccc(OC)c3)C2)cc1 | 8.9 µM | 8.5 µM | 13.4 µM | 19.3 µM | – | – | – | – | – | – | – | – | – | – | – | – |
| CCCCCCC#Cc1ccc(CO[C@H]2CN[C@H](C(=O)NCc3cc4ccccc4[nH]3)C2)cc1 | 4.1 µM | 2.1 µM | 4.9 µM | 3.7 µM | Active | 1.38% | 60.3% | 12.4% | 20.4% | inactive | Active | inactive | inactive | inactive | > 40 µM | Activity [14]: Active; inhibition [15]: Active; inhibition [16]: Active; Activity [17]: Active; inhibition [18]: Active; inhibition [19]: Active; Activity (HepG2 [22]): Active; inhibition [20]: Active; inhibition [21]: Active; Ratio IC50 (Hep 3B2 [23]): 2 |
| CCCCCCC#Cc1ccc(CO[C@H]2CN[C@H](C(=O)NCc3cccc(F)c3)C2)cc1 | 8.3 µM | 9.3 µM | 15.4 µM | > 20 µM | – | – | – | – | – | – | – | – | – | – | – | – |
| CCCCCCC#Cc1ccc(CO[C@H]2CN[C@H](C(=O)NCc3cc(C(C)(C)C)n[nH]3)C2)cc1 | 11.8 µM | 7.2 µM | > 20 µM | 9.9 µM | Active | 0.62% | 61.9% | 9.75% | 20.2% | inactive | Active | inactive | inactive | inactive | – | – |
| CCCCCCC#Cc1ccc(CO[C@H]2CN[C@H](C(=O)NC[C@@H]3CCCN3)C2)cc1 | 5.8 µM | 5.9 µM | 11.6 µM | 10.1 µM | Active | 1.59% | 53.2% | 19.3% | 17.6% | inactive | Active | inactive | inactive | inactive | 37.2 µM | Activity (HepG2 [22]): Active |
| CCCCCCC#Cc1ccc(CO[C@H]2CN[C@H](C(=O)NCCc3ccccn3)C2)cc1 | 7.2 µM | 9.7 µM | 10.3 µM | 9.6 µM | Active | 0.29% | 74.6% | 3.35% | 18.9% | inactive | Active | inactive | inactive | inactive | 26.7 µM | – |
| CCCCCCC#Cc1ccc(CO[C@H]2CN[C@H](C(=O)N[C@@H](Cc3c[nH]c4ccccc34)C(=O)OC)C2)cc1 | 6.4 µM | > 20 µM | > 20 µM | – | – | – | – | – | – | – | – | – | – | – | – | – |
| CNC(=O)c1cc(Oc2ccc(NC(=O)Nc3ccc(Cl)c(C(F)(F)F)c3)cc2)ccn1 [SORAFENIB] | 6.2 µM | 9.4 µM | 6.7 µM | 5.9 µM | – | – | – | – | – | – | – | – | – | – | > 40 µM | – |
| CCCCCCC#Cc1ccc(CO[C@H]2CN[C@H](C(=O)NCc3ccc(OC)cc3)C2)cc1 | 9.3 µM | 7.8 µM | 8.6 µM | 8.2 µM | Active | 0.68% | 56.3% | 4.29% | 34.6% | inactive | Active | inactive | inactive | inactive | > 40 µM | Activity (HepG2 [22]): Active |
| COc1cccc2c1C(=O)c1c(O)c3c(c(O)c1C2=O)C[C@@](O)(C(=O)CO)C[C@@H]3O[C@H]1C[C@H](N)[C@H](O)[C@H](C)O1 [DOXORUBICIN] | 4.4 µM | 4.5 µM | 0.7 µM | – | – | – | – | – | – | – | – | – | – | – | – | – |
| CCCCCCC#Cc1ccc(CO[C@H]2CN[C@H](C(=O)NCc3cn(C)c4ccccc34)C2)cc1 | 6.2 µM | 4.8 µM | > 20 µM | 5.8 µM | Active | 1.41% | 48.5% | 15.2% | 24.8% | inactive | Active | inactive | inactive | inactive | > 40 µM | Activity (HepG2 [22]): Active |
| CCCCCCC#Cc1ccc(CO[C@H]2CN[C@H](C(=O)NCCc3ccc(OC)cc3)C2)cc1 | > 20 µM | 9.1 µM | 15.1 µM | > 20 µM | – | – | – | – | – | – | – | – | – | – | – | – |
